Read-outs that look alike come from different tables or passages of the source.
How the values were obtained:
[1] = Release of pyridine ligand from synthesized complex followed by 1H NMR; type: physicochemical
Excerpt: The rate of the release of the monodentate ligand from the synthesized mixed-ligand complex is also of interest. Although a mixed-ligand complex with low stability should release its monodentate ligand easily, kinetic inertness has a major effect on reaching the equilibrium state. In contrast to their non-organometallic octahedral counterparts, half-sandwich Ru(II) and Rh(III) complexes have faster ligand exchange reactions.

[2] = cited from earlier work
[3] = Fractions of mixed-ligand complexes at 1:1 ratio at pH 6.0 and 7.4 by 1H NMR (screening of monodentate ligands); type: physicochemical; settings: for Fraction of mixed-ligand complex: 1H NMR
Description: In the preliminary studies, the co-ordination ability of the monodentate ligands to the [RhCp*(en)(H2O)]^2+, [RhCp*(phen)(H2O)]^2+, and [RhCp*(8HQH-1)(H2O)]^+ complexes was tested (Chart 2). The samples contained the aqua complex and the monodentate ligand in a 1:1 ratio and were buffered at pH = 6.0 and pH = 7.4. For an ideal drug candidate, all of the monodentate ligand would be bound at pH 7.4; thus, the mixed-ligand complex would be present exclusively, which dissociates completely at pH 6.0.
Figure 1 Fractions of the formed mixed-ligand [RhCp*(N,N/O)(N)]^2+/+ complexes at c(complex):c(monodentate ligand) = 1:1 ratio measured at pH = 6.0 (full bars) and 7.4 (checkered bars). Fractions were determined by the integration of the peaks in the ^1H NMR spectra. The percentage values above the columns show the difference in the fractions of the mixed-ligand complex at the two pH values. {c([RhCp*(phen)(H2O)]^2+) = c([RhCp*(en)(H2O)]^2+) = 1 mM; c([RhCp*(8HQH−1)(H2O)]^+) = 500 μM; 10% D2O; pH = 6.0 or 7.4 (PBS’); t = 25.0 °C}. […] The percentages were assigned to (N,N) = en, (N,N) = phen and (N,O) = 8HQH-1 by bar colour only.

[4] = I = 0.10 M (KCl); t = 25.0 °C; pH-potentiometry (benzimidazole: UV-vis)
Description: (§3) pH-potentiometric measurements were performed to determine the protonation constants (Kp) of the ligands and the concentration of the stock solutions. These measurements were carried out at 25.0 ± 0.1 °C in water in a pH range between 2.0 and 11.5, titrating with carbonate-free KOH solution (0.10 M). […] A Thermo Scientific 0710A0 benchtop pH meter (Waltham, MA, USA), equipped with a Metrohm combined electrode (type 6.0234.100) and a Metrohm 665 Dosimat burette (Metrohm, Herisau, Switzerland) was used for these measurements. […] The initial volume of the samples was 10.0 mL, and the ligand concentration was 2.0 mM in the samples. Samples were degassed by bubbling purified argon prior to and during the measurements. The computer program Hyperquad2013 [28] was utilized to determine the protonation constants of the ligands and concentration.
(§4) The protonation constants (Kp) were determined by pH-potentiometric and UV-vis spectrophotometric titrations in the presence of 0.1 M KCl (see Table 1 and Figures S21 and S22 for examples).

[5] = test system: Colo320 human colon adenocarcinoma cell line (doxorubicin-resistant); assay: MTT assay, cytotoxicity at pH 6 and 7; type: cell-based; settings: Homo sapiens, COLO 320, Colo320, 72 h incubation, read-out: IC50
In short: (§1)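 Colo205 and Colo320 cells at 1 × 10^4 cells/well in RPMI 1640 (10% FBS, HEPES) adjusted to pH 6.0 or 7.0, exposed to two-fold serial dilutions of freshly prepared complexes for 72 h at 37 °C. MTT read at 540/630 nm after SDS solubilisation. Values from sigmoidal dose–response fits, triplicates.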

[6] = test system: Colo205 human colon adenocarcinoma cell line (doxorubicin-sensitive); assay: MTT assay, cytotoxicity at pH 6 and 7; type: cell-based; settings: Homo sapiens, COLO 205, Colo205, 72 h incubation, read-out: IC50
In short: as §1

[7] = test system: S. aureus ATCC 25923 (methicillin-susceptible); assay: Antibacterial assay, MIC in 96-well plates at different pH; type: cell-based; settings: Staphylococcus aureus
In short: (§2)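 Broth microdilution MIC per CLSI in Mueller Hinton broth, with overnight culture diluted 10,000-fold as inoculum. Each strain and compound tested at pH 5, 6, 7 and 8, in triplicate.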

[8] = test system: E. coli 32313 (resistant); assay: as above; type: cell-based; settings: Escherichia coli
In short: as §2

[9] = test system: S. aureus 272123 (MRSA); assay: as above; type: cell-based; settings: Staphylococcus aureus
In short: as §2

[10] = test system: E. coli ATCC 25922 (sensitive); assay: as above; type: cell-based; settings: Escherichia coli
In short: as §2

[11] = physchem
Description: as §3, §4

[12] = Formation constants of mixed-ligand half-sandwich complexes (UV-vis and 1H NMR); type: physicochemical; settings: aqua complex + monodentate ligand; I = 0.10 M (KCl); t = 25.0 °C; UV-vis and 1H NMR
Description: NMR spectroscopic studies were carried out on a Bruker Avance III HD Ascend 500 Plus instrument. For the aqueous samples, ^1H NMR spectra were recorded with the WATERGATE water suppression pulse scheme using DSS internal standard. The highest peak of DSS was 0.00 ppm. The measurement was very similar to the UV-vis measurement since the complex–to–monodentate ligand ratio was also between 0–10 equivalents; the spectra were recorded after the given waiting time. […] This technique was useful in those cases where no spectral change was visible during the UV-vis titrations.
In both measurement methods, the formation constant (K) was obtained using the computer program PSEQUAD [38].
It is worthwhile to mention that the liberation of the bidentate ligand was not detected even at higher monodentate ligand excess (~10), which means that the disruption of the bond between the bidentate ligand and the metal center is not feasible under these conditions. The calculated formation constants are compared in Figure 5 and are collected in Table S2. The formation of the mixed-ligand complexes was not detected in three cases under the applied conditions, namely [Ru(p-cym)(en)(mim)]^2+, [Ru(p-cym)(phen)(mim)]^2+, and [Ru(p-cym)(en)(Py)]^2+. For these complexes, only a higher limit of the formation constant could be given, assuming that a maximum of 5% of the complex would form (limit of detection) under the conditions used for ^1H NMR spectroscopy. Based on Figure 5, the following trends are observed in the formation constants: (i) [RhCp*(en)(H2O)]^2+ and [RhCp*(phen)(H2O)]^2+ have a stronger monodentate ligand-binding ability than the Ru(p-cym) analogs; (ii) the formation constants of the [Ru(p-cym)(8HQH-1)(N)]^+ complexes are similar or somewhat higher than those of the RhCp* analogs; (iii) a stability trend for the monodentate ligand: mim > bim > Py (iv) and the bidentate ligand: 8HQH-1 > phen ≥ en can be seen.

[13] = Proton dissociation constants of the coordinated water in [M(arene)(N,N/O)(H2O)]2+/+ complexes (UV-vis titration); settings: I = 0.10 M (KCl); t = 25.0 °C; UV-vis
Excerpt: The proton dissociation of the aqua ligand in the [M(arene)(N,N/O)(H2O)]^2+/+ complexes (Scheme 2) results in the inert mixed-hydroxido species (general formula: [M(arene)(N,N/O)(OH)]^+/0).

[14] = Kinetics of mixed-ligand complex formation followed by UV-vis; type: physicochemical; settings: complex:1-methylimidazole 1:2, pH 7.4 (phen, Figure 2) or 5.94 (en, Figure S23)
Description: Firstly, the reactions were followed by UV-vis spectrometry, and significant changes in the charge transfer bands were observed. Based on these preliminary measurements, the waiting time needed prior to measurement was determined. Generally, the reaction was faster for the RhCp* complexes than for the Ru(p-cym) analogs. […] The [Ru(p-cym)(en/phen)(H2O)]^2+ complexes reached chemical equilibrium within only hours, while the reaction between 1-methylimidazole and [RhCp*(phen)(H2O)]^2+ (Figure 2) or [RhCp*(en)(H2O)]^2+ (Figure S23) was completed within 90 min. However, the fractions of the mixed-ligand complexes cannot be determined from these spectral changes in the chemical equilibrium; thus, further experiments were carried out to determine the formation constants.
Figure 2 (a) Time-dependent UV-vis spectra of the c([RhCp*(phen)(H2O)]^2+):c(1-methylimidazole) = 1:2 mixture under physiological conditions (pH = 7.4 (PBS’ buffer)). (b) Time dependence of the absorbance values at 400 nm. {c([RhCp*(phen)(H2O)]^2+) = 200 μM; c(1-methylimidazole) = 400 μM; pH = 7.40 (PBS’); t = 25 °C; ℓ = 1 cm}.

[15] = test system: testicular tumors; set-up: method as in doi:10.2174/2210298102666220404102936; settings: cited from earlier work
[16] = Stability of mixed-ligand complex in methanol (1H NMR in CD3OD); type: physicochemical
Excerpt: ^1H NMR (CD3OD, ppm, 500 MHz, standard: δ 3.31 (solvent residual peak)): δ 9.76 (dd, J = 5.2 Hz, 0.87 Hz, 2H, phen-H^2,9), δ 8.99 (dd, J = 8.3 Hz, 1.2 Hz, 2H, phen-H^4,7), δ 8.49 (d, J = 5.2 Hz, 2H, Py-H^2,6), δ 8.40 (dd, J = 8.2 Hz, 5.2 Hz, 2H, phen-H^3,8), δ 8.25 (s, 2H, phen-H^5,6), δ 7.91 (tt, J = 7.7 Hz, 1.4 Hz, 1H, Py-H^4), δ 7.46 (t, J = 7.1 Hz, 2H, Py-H^3,5), δ 1.75 (s, 15H, Cp*-H^methyl). Deuteration of Cp* is visible and highlighted in the spectrum in Figure S9. A small amount (<5%) of dissociated complex is visible in equilibrium with the complex, indicating the low stability of the mixed-ligand complex even in methanol.

## Cc1c(C)c(C)[c-](C)c1C.NCCN.O=S(=O)([O-])C(F)(F)F.O=S(=O)([O-])C(F)(F)F.[Rh+3].c1ccncc1 [Complex 2]
[1]; pH 6.0, after 5 min
  monodentate ligand dissociated: ~ 75%
[1]; pH 6.0, after half an hour
  released monodentate ligand at chemical equilibrium: ~ 94%

## CN [methylamine]
[2]
  logKp (= pKa), literature data: 10.51 [47]
[3]; pH 6.0 and 7.4
  interaction (co-ordination) with the RhCp* aqua complexes: no interaction was found
[4]
  logKp (= pKa): 10.58 ± 0.03

## Cn1ccnc1 [mim, 1-methylimidazole, reference compound]
[5]; pH 6
  IC50: > 100 µM
[5]; pH 7
  IC50: > 100 µM
[6]; pH 6
  IC50: > 100 µM
[6]; pH 7
  IC50: > 100 µM
[7]; ATCC25923, 24 h, S. aureus sensitive, pH 7, after one day, read-out: MIC
  MIC: > 100 µM
[7]; ATCC25923, 24 h, S. aureus sensitive, pH 8, after one day, read-out: MIC
  MIC: > 100 µM
[7]; ATCC25923, any of the bacterial strains, S. aureus, read-out: MIC (no antibacterial effect)
  MIC: > 100 µM
[8]; 24 h, E. coli resistant, pH 5, after one day, read-out: MIC
  MIC: > 100 µM
[8]; 24 h, E. coli resistant, pH 6, after one day, read-out: MIC
  MIC: > 100 µM
[8]; 24 h, E. coli resistant, pH 7, after one day, read-out: MIC
  MIC: > 100 µM
[8]; 24 h, E. coli resistant, pH 8, after one day, read-out: MIC
  MIC: > 100 µM
[8]; any of the bacterial strains, resistant E. coli, read-out: MIC (no antibacterial effect)
  MIC: > 100 µM
[9]; 24 h, pH 5, after one day, read-out: MIC
  MIC: > 100 µM
[9]; 24 h, pH 6, after one day, read-out: MIC
  MIC: > 100 µM
[9]; 24 h, pH 7, after one day, read-out: MIC
  MIC: > 100 µM
[9]; 24 h, pH 8, after one day, read-out: MIC
  MIC: > 100 µM
[9]; any of the bacterial strains, read-out: MIC (no antibacterial effect)
  MIC: > 100 µM
[10]; ATCC25922, 24 h, E. coli sensitive, pH 5, after one day, read-out: MIC
  MIC: > 100 µM
[10]; ATCC25922, 24 h, E. coli sensitive, pH 6, after one day, read-out: MIC
  MIC: > 100 µM
[10]; ATCC25922, 24 h, E. coli sensitive, pH 7, after one day, read-out: MIC
  MIC: > 100 µM
[10]; ATCC25922, 24 h, E. coli sensitive, pH 8, after one day, read-out: MIC
  MIC: > 100 µM
[10]; ATCC25922, any of the bacterial strains, E. coli, read-out: MIC (no antibacterial effect)
  MIC: > 100 µM
[11]
  pKa: 7.14 ± 0.01

## Cc1c(C)c(C)[c-](C)c1C.Cn1ccnc1.NCCN.[Rh+3] [[RhCp*(en)(mim)]^2+]
[3]; pH 6.0, PBS'
  Fraction of mixed-ligand complex: 52%
[3]; pH 7.4, PBS'
  Fraction of mixed-ligand complex: 82%
[12]
  Formation constant logK of mixed-ligand complex: 4.2 ± 0.1

## Cc1c(C)c(C)[c-](C)c1C.NCCN.O.[Rh+3] [[RhCp*(en)(H2O)]2+]
[13]
  pKa of the coordinated water molecule: 10.6±0.1
[14]
  time to completion of the reaction with 1-methylimidazole: ≤ 90 min

## c1ccc2[nH]cnc2c1 [benzimidazole]
[2]
  logKp (= pKa), literature data: 5.54 [44]
[11]; water with 0.10 M KCl
  pKa: 5.44 ± 0.01

## Cc1c(C)c(C)[c-](C)c1C.O.[Rh+3].c1cnc2c(c1)ccc1cccnc12 [[RhCp*(phen)(H2O)]2+]
[13]
  pKa of the coordinated water molecule: 10.05±0.01
[14]
  time to completion of the reaction with 1-methylimidazole: ≤ 90 min

## N.N.[Cl][Pt][Cl] [Cisplatin]
[15]
  cure rates: above 95%

## NCc1ccccc1 [benzylamine]
[11]; water with 0.10 M KCl
  pKa: 9.42 ± 0.01

## Cc1c(C)c(C)[c-](C)c1C.O=S(=O)([O-])C(F)(F)F.O=S(=O)([O-])C(F)(F)F.[Rh+3].c1ccncc1.c1cnc2c(c1)ccc1cccnc12 [Complex 4]
[16]
  dissociated complex in equilibrium with the complex: < 5%
